Assay results published in patent publication US10829487B2, “Benzylamino substituted pyridopyrimidinones and derivatives as SOS1 inhibitors” (Boehringer Ingelheim International GmbH, priority 2017, dated 2020).

Experiments:
[1] = target: protein-protein interaction between SOS1 and KRAS G12D (Homo sapiens (Human), UniProt Q07889); test: KRAS::SOS1 AlphaScreen Binding Assay
Text: KRAS::SOS1 AlphaScreen Binding Assay
Low IC50 values are indicative of high potency of the SOS1 inhibitor compound in this assay setting:
Reagents: • GST-tagged SOS1 (564_1049_GST_TEV_ECO) produced in-house • GST-TEV-SOS1 (564-1049) is purchased from Viva Biotech Ltd. • 6×His-Tev-K-RasG12D(1-169)Avi is purchased from Xtal BioStructures, Inc. (Lot # X129-110) • GDP (Sigma Cat No G7127) • AlphaLISA Glutathione Acceptor Beads (PerkinElmer, Cat No AL109) • AlphaScreen Streptavidin Donor Beads (PerkinElmer Cat No 6760002) • Assay plates: Proxiplate-384 PLUS, white (PerkinElmer, Cat No 6008289)
10 nM (final assay concentration) KRAS G12D, 10 μM (final assay concentration) GDP and 5 nM (final assay concentration) GST-SOS1 are mixed in assay buffer prior to use and kept at room temperature.
AlphaLISA Glutathione Acceptor Beads and AlphaScreen Streptavidin Donor Beads are mixed in assay buffer at a concentration of 10 μg/mL (final assay concentration) each prior to use and kept at room temperature.
Compounds are diluted to a final start concentration of 100 μM and are tested in duplicate. Assay-ready plates (ARPs) are generated using an Access Labcyte Workstation with a Labcyte Echo 550 or 555 accoustic dispenser. For compound a start concentration of 100 μM, 150 nL of compound solution is transferred per well in 11 concentrations in duplicate with serial 1:5 dilutions.
The assay is run using a fully automated robotic system in a darkened room below 100 Lux. 10 μL of KRAS::SOS1 GDP mix is added into columns 1-24 to the 150 nL of compound solution (final dilution in the assay 1:100, final DMSO concentration 1%).
After a 30 minute incubation time 5 μL of bead mix is added into columns 1-23. Plates are kept at room temperature in a darkened incubator. After a further 60 minute incubation, the signal is measured using a PerkinElmer Envision HTS Multilabel Reader using the AlphaScreen specifications from PerkinElmer. Each plate contains the following controls: • diluted DMSO+KRAS::SOS1 GDP mix+bead mix • diluted DMSO+KRAS::SOS1 GDP mix
IC50 values are calculated and analyzed using a 4 parametric logistic model.

[2] = tested on: ERK phosphorylation in DLD-1 cells (KRAS G13D); test: ERK Phosphorylation Assay (AlphaLISA SureFire Ultra p-ERK1/2); type: cell-based; conditions: Homo sapiens, 1 h compound, EGF 50 ng/mL 10 min, read-out: pERK
Description: ERK Phosphorylation Assay
Low IC50 values are indicative of high potency of the SOS1 inhibitor compounds in this assay setting.
ERK phosphorylation assays are performed using the following human cell lines: DLD-1 (ATCC CCL-221): human colon cancer with a KRAS G13D mutation;
DLD-1 cells (ATCC CCL-221) are seeded at 50,000 cells per well in/60 μL of RPMI with 10% FBS, non-essential amino acids, pyruvate and glutamax in Greiner TC 384 plates. The cells are incubated for 1 h at room temperature and then incubated overnight in an incubator at 37° C. and 5% CO2 in a humidified atmosphere. 60 nL compound solution (10 mM DMSO stock solution) is then added using a Labcyte Echo 550 device. After a 1 h incubation in the aforementioned incubator, 3 μL Epidermal Growth Factor (EGF, final concentration 50 ng/mL) is added. 10 minutes later the medium is removed, and the cells lysed by addition of 20 μL of 1.6-fold lysis buffer from the AlphaLISA SureFire Ultra pERK1/2 (Thr202/Tyr204) Assay Kit with added protease inhibitors, 100 nM trametinib+100 nM staurosporine. After 20 minutes of incubation at room temperature with shaking, 6 μL of each lysate sample is transferred to a 384-well Proxiplate and analyzed for pERK (Thr202/Tyr204) with the AlphaLISA SureFire Ultra pERK1/2 (Thr202/Tyr204) Assay Kit. 3 μL Acceptor Mix and 3 μL Donor Mix are added under subdued light and incubated for 2 h at room temperature in the dark, before the signal is measured on a Perkin Elmer Envision plate reader using 384 AlphaScreen settings for Proxiplates. Data are fitted by iterative calculation with variable hill slope. The sigmoidal curve slope is fitted using a default fitting curve to ascertain IC50 values.

[3] = Metabolic (microsomal) stability assay, human liver microsomes (HLM); type: in vitro ADME; conditions: 1 μM test compound, 37° C.
Description: (§1) Metabolic (Microsomal) Stability Assay: The metabolic degradation of the test compound is assayed at 37° C. with pooled liver microsomes (mouse (MLM), rat (RLM) or human (HLM)). The final incubation volume of 74 μL per time point contains TRIS buffer (pH 7.5; 0.1 M), magnesium chloride (6.5 mM), microsomal protein (0.5 mg/mL for mouse/rat, 1 mg/mL for human specimens) and the test compound at a final concentration of 1 μM. Following a short preincubation period at 37° C., the reactions are initiated by addition of 8 μL beta-nicotinamide adenine dinucleotide phosphate, reduced form (NADPH, 10 mM) and terminated by transfering an aliquot into solvent after different time points. Additionally, the NADPH-independent degradation is monitored in incubations without NADPH, terminated at the last time point by addition of acetonitrile. The quenched incubations are pelleted by centrifugation (1811 g, 5 min). An aliquot of the supernatant is assayed by LC-MS/MS for the amount of parent compound. In vitro intrinsic clearance (CLint, in vitro) is calculated from the time course of the disappearance of the test drug during the microsomal incubation. Each plot is fitted to the first-order elimination rate constant as C(t)=C0*exp(−ke*t), where C(t) and C0 are the concentration of unchanged test drug at incubation time t and that at preincubation and ke is the disappearance rate constant of the unchanged drug. Subsequently, CLint, in vitro (μL min^−1·amount protein) values are converted to CLint, in vitro (mL min^−1·kg^−1) for the whole body. CLint, in vitro data are scaled up using physiological parameters. For better across species comparison the predicted clearance is expressed as percent of the liver blood flow [% QH] in the individual species. In general, high stability (corresponding to low % QH) of the compounds across species is desired.

[4] = Metabolic (microsomal) stability assay, mouse liver microsomes (MLM); type: in vitro ADME; conditions: 1 μM test compound, 37° C.
Description: as §1

[5] = Metabolic (microsomal) stability assay, rat liver microsomes (RLM); type: in vitro ADME; conditions: 1 μM test compound, 37° C.
Description: as §1

[6] = Table 20, KRAS::SOS1 AlphaScreen (SOS1 / KRAS G12D)
[7] = KRAS G12D::SOS1 AlphaScreen, measured without EDTA unless marked with an asterisk

Sequence of protein-protein interaction between SOS1 and KRAS G12D (Q07889 564-1049, stated change not applied): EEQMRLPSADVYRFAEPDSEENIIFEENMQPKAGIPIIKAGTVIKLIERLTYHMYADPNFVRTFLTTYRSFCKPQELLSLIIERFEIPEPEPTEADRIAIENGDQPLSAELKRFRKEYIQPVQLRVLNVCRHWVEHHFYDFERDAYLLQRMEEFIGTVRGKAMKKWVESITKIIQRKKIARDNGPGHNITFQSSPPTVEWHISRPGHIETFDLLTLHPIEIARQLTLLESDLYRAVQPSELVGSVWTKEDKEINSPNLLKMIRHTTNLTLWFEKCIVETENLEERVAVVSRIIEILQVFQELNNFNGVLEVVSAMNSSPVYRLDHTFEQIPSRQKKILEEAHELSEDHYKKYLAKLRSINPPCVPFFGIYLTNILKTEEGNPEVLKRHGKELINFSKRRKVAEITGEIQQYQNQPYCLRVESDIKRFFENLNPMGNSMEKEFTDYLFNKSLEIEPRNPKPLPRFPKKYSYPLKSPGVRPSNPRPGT

Row | IC50 [1, 6] | IC50 [2] | IC50 [1, 7] | Structure (SMILES) | other results
1 | 5 nM | 70 nM | – | Cc1nc(N[C@H](C)c2cccc3c(F)coc23)c2cn(C3(C(F)F)CC3)c(=O)cc2n1 [I-103] | –
2 | – | 57 nM | 4 nM | Cc1nc(N[C@H](C)c2cccc(C(F)F)c2F)c2cn(C34CCC(O)(CC3)CC4)c(=O)c(C)c2n1 [I-156] | –
3 | 2 nM | 89 nM | – | Cc1nc(N[C@H](C)c2cccc3c2CCC3(F)F)c2cn(C3(C(F)F)CC3)c(=O)cc2n1 [I-58] | –
4 | 3 nM | 113 nM | – | Cc1nc(N[C@H](C)c2cccc(C(F)F)c2C)c2cn(C3(C(F)F)CC3)c(=O)cc2n1 [I-21] | –
5 | 15 nM | – | – | Cc1nc(N[C@H](C)c2cccc(C(F)F)c2F)c2cn([C@H]3C[C@@H]3C(F)F)c(=O)c(F)c2n1 [I-83] | HLM [% QH] [3]: <24 % QH; MLM [% QH] [4]: <24 % QH; RLM [% QH] [5]: 42 % QH
6 | 33 nM | – | – | Cc1nc(N[C@H](C)c2cccc(C(F)(F)F)c2C)c2cn([C@H]3C[C@](O)(C(F)(F)F)C3)c(=O)cc2n1 [I-47] | HLM [% QH] [3]: 24 % QH; MLM [% QH] [4]: <24 % QH; RLM [% QH] [5]: 29 % QH
7 | – | 93 nM | 6 nM | Cc1c(=O)n(C23CCC(F)(CC2)CC3)cc2c(N[C@H](C)c3cccc(C(F)F)c3F)ncnc12 [I-171] | –
8 | – | 33 nM | – | Cc1nc(N[C@H](C)c2cccc(C(F)(F)F)c2C)c2cn(C3(CF)CC3)c(=O)cc2n1 [I-38] | –
9 | 3 nM | 88 nM | – | C[C@@H](Nc1ncnc2cc(=O)n(C34CCC(F)(CC3)CC4)cc12)c1cccc(C(F)F)c1F [I-73] | –
10 | – | – | – | Cc1nc(N[C@H](C)c2cccc(C(F)F)c2F)c2cn(C3(C(F)F)CC3)c(=O)cc2n1 [I-3] | HLM [% QH] [3]: <24 % QH; MLM [% QH] [4]: 51 % QH; RLM [% QH] [5]: <23 % QH
11 | 8 nM | – | – | Cc1nc(N[C@H](C)c2cccc(C(F)F)c2F)c2cn([C@H]3C[C@H](F)C3)c(=O)c(F)c2n1 [I-84] | HLM [% QH] [3]: <24 % QH; MLM [% QH] [4]: <24 % QH; RLM [% QH] [5]: 29 % QH
12 | 9 nM | – | – | Cc1nc(N[C@H](C)c2cccc(C(F)F)c2F)c2cn([C@]3(C(F)(F)F)CCOC3)c(=O)c(F)c2n1 [I-85] | HLM [% QH] [3]: 24 % QH; MLM [% QH] [4]: 55 % QH; RLM [% QH] [5]: <23 % QH
13 | 4 nM | 96 nM | – | Cc1nc(N[C@H](C)c2cccc(C(C)(F)F)c2F)c2cn(C3(C)CC3)c(=O)cc2n1 [I-52] | –
14 | – | 104 nM | 5 nM | Cc1nc(N[C@H](C)c2cccc(C(F)F)c2C)c2cn(C3(C)CC3)c(=O)c(C)c2n1 [I-157] | –
15 | – | 70 nM | 5 nM | Cc1nc(N[C@H](C)c2cccc(C(F)F)c2F)c2cn([C@]3(C(F)(F)F)CCOC3)c(=O)cc2n1 [I-119] | –
16 | – | 85 nM | 2 nM | Cc1nc(N[C@H](C)c2cccc(C(F)F)c2C)c2cn(C34CCC(C(=O)N(C)C)(CC3)CC4)c(=O)cc2n1 [I-124] | –
17 | – | 113 nM | 4 nM | C[C@@H](Nc1ncnc2cc(=O)n(C34CC(C3)C4)cc12)c1cccc2c1CCC2(F)F [I-106] | –
18 | 1 nM | 95 nM | – | Cc1nc(N[C@H](C)c2cccc(C(F)(F)CO)c2F)c2cn(C34CCC(CC3)C4)c(=O)cc2n1 [I-61] | –

Row | IC50 [1, 6] | IC50 [2] | IC50 [1, 7] | Structure (SMILES) | other results
19 | – | 91 nM | 2 nM | Cc1c(=O)n(C23CCC(CC2)C3)cc2c(N[C@H](C)c3cccc4c3CCC4(F)F)ncnc12 [I-177] | –
20 | – | 38 nM | 1 nM | Cc1nc(N[C@H](C)c2cccc(C(F)(F)CO)c2F)c2cn(C34CCC(CC3)CC4)c(=O)cc2n1 [I-130] | –
21 | – | 93 nM | 5 nM | Cc1nc(N[C@H](C)c2cccc(C(F)F)c2F)c2cn(C34CCC(F)(CC3)CC4)c(=O)cc2n1 [I-121] | –
22 | – | 120 nM | 10 nM | Cc1c(=O)n(C23CC(F)(C2)C3)cc2c(N[C@H](C)c3cccc(C(C)(F)F)c3F)ncnc12 [I-176] | –
23 | – | – | 17 nM | C[C@@H](Nc1ncnc2cc(=O)n(C34CC(C3)C4)cc12)c1cccc2c1CCC2=O [I-107] | –
24 | 4 nM | 111 nM | – | Cc1nc(N[C@H](C)c2cccc(C(F)F)c2C)c2cn(C3(C)CCC3)c(=O)cc2n1 [I-23] | –
25 | 10 nM | – | – | C[C@@H](Nc1ncnc2cc(=O)n(C3(C(F)(F)F)CC3)cc12)c1cccc(C(F)F)c1F [I-65] | –
26 | 39 nM | – | – | Cc1nc(N[C@H](C)c2cccc(C(F)(F)F)c2F)c2cn([C@H]3CCOC3)c(=O)cc2n1 [I-34] | –
27 | 5 nM | 61 nM | – | Cc1nc(N[C@H](C)c2cccc(C(F)(F)F)c2C)c2cn(C3(C)CC3)c(=O)cc2n1 [I-37] | –
28 | 14 nM | – | – | Cc1nc(N[C@H](C)c2cccc(C(F)(F)F)c2C)c2cn(C3CCC3)c(=O)cc2n1 [I-41] | –
29 | 4 nM | 67 nM | – | Cc1nc(N[C@H](C)c2cccc3c2OCC3(F)F)c2cn(C3(C(F)F)CC3)c(=O)cc2n1 [I-102] | –
30 | – | – | 3 nM | Cc1nc(N[C@H](C)c2cccc(C(F)F)c2F)c2cn(C34CCC(O)(CC3)CC4)c(=O)cc2n1 [I-122] | –
31 | 7 nM | – | – | C[C@@H](Nc1ncnc2cc(=O)n(C34CC(C3)C4)cc12)c1cccc(C(F)F)c1F [I-70] | –
32 | 12 nM | – | – | Cc1nc(N[C@H](C)c2cccc(C(F)F)c2F)c2cn(C34CC(F)(C3)C4)c(=O)cc2n1 [I-16] | –
33 | 3 nM | 113 nM | – | Cc1nc(N[C@H](C)c2cccc3c2CCC3(F)F)c2cn(C34CC(C3)C4)c(=O)cc2n1 [I-59] | –
34 | 18 nM | 62 nM | – | Cc1nc(N[C@H](C)c2cccc(C(F)(F)F)c2C)c2cn(C3(C(F)(F)F)CC3)c(=O)cc2n1 [I-39] | –
35 | – | 87 nM | 4 nM | C[C@@H](Nc1ncnc2cc(=O)n(C3(C)CC3)cc12)c1cccc2c1CCC2(F)F [I-104] | –
36 | 2 nM | – | – | Cc1nc(N[C@H](C)c2cccc(C(F)F)c2F)c2cn(C34CCC(CC3)C4)c(=O)cc2n1 [I-19] | –
